{"source": "patent US20200138845A1", "about": "“Combination Drug Therapy” (ViiV Healthcare Company, priority 2017, published 2020)", "origin": "cited, not measured here", "tested_on": "HIV-1 strains", "conditions": "antiviral activity against a broad range of HIV-1 strains", "data": [{"smiles": "C[C@H]1CO[C@@H]2Cn3cc(C(=O)NCc4ccc(F)cc4F)c(=O)c(O)c3C(=O)N12", "note": "[Cabotegravir, cabotegravir]", "values": [{"measurement": "potency", "value": "subnanomolar"}]}]}
